Ends that are not written are not given here.
Columns and labels:
Format in all cases: cell-based
Escherichia coli = experiment: Growth inhibition of Gram-negative bacteria by P18 (optical density at 620 nm); details: for optical density at 620 nm: E. coli suspension, 25 μM P18 solution, mean of 8 mixtures
Procedure: The growth inhibition by P18 was investigated on Gram-positive and Gram-negative bacteria. Shin et al. 1999 (loc.cit.) had already detected an inhibition on the model organisms Escherichia coli and Bacillus subtilis within a period up to 18 hours.
The growth medium used for this was LB medium as complex medium for the organisms Escherichia coli, Bacillus subtilis and Brevibacterium epidermidis. The medium comprised 10 g of trypton, 5 g of yeast extract and 10 g of NaCl per liter.
The growth test was carried out as follows: A shake flask with medium was inoculated with Escherichia coli, Bacillus subtilis or Brevibacterium epidermidis and incubated with shaking overnight at 30° C. and 200 rpm. A 96-well microtiter plate was filled with in each case 100 μl LB medium and inoculated with E.-coli, B.-subtilis or B. epidermidis suspensions of the overnight culture. The bacteria suspension was adjusted at the start of the experiment to an optical density, measured at 620 nm, of about 0.02. The concentrates of the P18 inhibitor solutions were 1 mM in water.
(§1) The growth of the following mixtures was compared by measuring the optical density:
bacteria suspension without the addition of an inhibitor;
bacteria suspension and addition of an aqueous P18 solution with a final concentration of 25 μM. The aqueous P18 solution had been freshly prepared.
The growth was observed over a period of 40 hours by measuring the optical density. […] The growth of Gram-positive bacteria was inhibited initially.

Malassezia furfur [1] = experiment: Long-term stability of P18 in shampoo basic formulations (40° C.) tested on M. furfur, CFU; details: stored at 40° C., 0; 12 and 22 days
Procedure: Long-term stability of the peptide P18 (H-KWKLFKKIPKFLHLAKKF-NH2; carboxy-terminal end amidated) in shampoo basic formulations was tested.
The following shampoo basic formulations were prepared:
The components Texapon NSO and Tego Betain L7 were mixed and dissolved. The pH was adjusted to pH 6-7 with NaOH. In the following, 100 mM of aqueous P18 peptide solution were prepared. A corresponding volume of 100 mM P18 peptide solution was added to each formulation in order to obtain peptide P18 final concentrations as indicated in table 15.
The formulations were stored at 40° C.
After 0; 12 and 22 days, the effect of the formulations against M. furfur was analyzed.
Growth medium: M472-Pityrosporum medium according to DSMZ
(§2) The components were sterilized at 121° C., 1 bar superatmospheric pressure for 20 minutes.
2 g/L of olive oil (sterilized by filtration and, after autoclaving, added to the other components) […]
A 96-well microtiter plate was filled with in each case 100 μl of M472-Pityrosporum medium and inoculated with M. furfur suspension of the overnight culture. The M. furfur suspension was adjusted at the start of the experiment to an optical density, measured at 600 nm, of 0.1. […]
After 24 hours, the colony-forming units (CFU) were determined. For this, 1 μl and 10 μl were plated out from each of the suspensions and, after incubation for 6 days, the colonies were counted.

Malassezia furfur [2] = experiment: Inhibition of Malassezia furfur growth test (optical density and colony-forming units), Examples 1 and 2; details: for colony-forming units: 10 μl plated out
Procedure: Growth medium: M472-Pitysporum medium according to DSMZ
as §2
2 g/l of olive oil were sterilized by filtration and, after autoclaving, added to the other components.
Since it was a two-phase medium, the complete medium was treated with sonication in order to enlarge the phase boundary.
For agar plates, if appropriate, […] of agar agar were added to the medium.
The growth test was carried out as follows: A shake flask with M472-Pitysporum medium was inoculated with M. furfur and incubated with shaking overnight at 30° C. and 200 rpm.
A 96-well microtiter plate was filled with in each case 100 μl of M472-Pitysporum medium and inoculated with M. furfur suspension of the overnight culture. The M. furfur suspension was adjusted at the start of the experiment to an optical density, measured at 620 nm, of 0.02. The concentrates of the inhibitor solutions were 1 mM in water or DMSO.
The growth of the following batches was compared by measuring the optical density:
M. furfur suspension without the addition of an inhibitor.
This was to exclude that an inhibition is attributable merely to the effect of the DMSO, or a false positive result being observed.
M. furfur suspension and addition of an aqueous P18 solution with a final concentration of 25 μM.
M. furfur suspension and addition of a P18 solution in DMSO with a final concentration of 25 μM.
M. furfur suspension and addition of a zinc pyrithione (ZPT, Sigma-Aldrich) solution in DMSO with a final concentration of 25 μM.
M. furfur suspension and addition of a Ketoconazole (Sigma-Aldrich) solution in DMSO with a final concentration of 25 μM.
The microtiter plate was incubated with shaking at 30° C.
[…] The colony-forming units (CFU) were then determined by plating out 10 μl from each of the suspensions and, after incubation for 6 days, counting the colonies. The CFU was determined in order to exclude an influence of the two-phase medium and also the growth form of M. furfur on the optical density. […] The experiments were carried out at least in triple determinations and independently repeated.
For this, the procedure was as described in Example 1. 1 mM stock solutions of the fusion peptide P18, magainin 2 and cecropin A in DMSO were prepared. The final concentrations of the peptides in the growth experiments were 25 μM. The same amount of DMSO was likewise added to the suspension without inhibitor in order to exclude a growth-inhibiting effect of the DMSO.
as §1
This was to exclude that an inhibition is attributable merely to the effect of the DMSO.
M. furfur suspension and addition of a magainin 2 solution in DMSO with a final concentration of 25 μM.
M. furfur suspension and addition of a cecropin A solution in DMSO with a final concentration of 25 μM.
M. furfur suspension and addition of a peptide P18 (SEQ ID NO3) solution in DMSO with a final concentration of 25 μM.

[3] = aqueous solution, 25 μM, incubation time 16 h
[4] = aqueous solution, 25 μM, incubation time 24 h
[5] = aqueous solution, 25 μM, incubation time 40 h
[6] = solution in DMSO, 25 μM, incubation time 16 h
[7] = solution in DMSO, 25 μM, incubation time 24 h
[8] = solution in DMSO, 25 μM, incubation time 40 h

With “KWKLFKKIPKFLHLAKKF-NH2 [P18, KWKLFKKIPKFLHLAKKF-NH2]” the “growth of E. coli (in words)” value (Escherichia coli; 25 μM, period of 40 hours) was “effectively inhibited”, the “optical density at 620 nm” value (Escherichia coli; incubation time 16 h) was 0.09 and the “optical density at 620 nm” value (Escherichia coli; incubation time 24 h) was 0.06. For the same substance, the “optical density at 620 nm” value (Escherichia coli; incubation time 40 h) was 0.07, the “long-term stability in shampoo basic formulations (in words)” value (Malassezia furfur [1]) was “stable characteristics” and the “inhibition of the growth of M. furfur compared to magainin 2 or cecropin A” value (Malassezia furfur [2]; 25 μM in DMSO) was “more effectively than magainin 2 or cecropin A alone”. The “growth of M. furfur (in words)” value (Malassezia furfur [2]; 25 μM, observed time period up to 40 hours) was “effectively inhibited”, the optical density (Malassezia furfur [2]; aqueous solution, 25 μM, incubation time 0 h) was 0 and the optical density (Malassezia furfur [2]; [3]) was 0. The colony-forming units (Malassezia furfur [2]; [3]) was 62, the optical density (Malassezia furfur [2]; [4]) was 0 and the colony-forming units (Malassezia furfur [2]; [4]) was 41. For the same substance, the optical density (Malassezia furfur [2]; [5]) was 0, the colony-forming units (Malassezia furfur [2]; [5]) was 120 and the optical density (Malassezia furfur [2]; solution in DMSO, 25 μM, incubation time 0 h) was 0. For the same substance, the optical density (Malassezia furfur [2]; [6]) was 0, the colony-forming units (Malassezia furfur [2]; [6]) was 8 and the optical density (Malassezia furfur [2]; [7]) was 0. For the same substance, the colony-forming units (Malassezia furfur [2]; [7]) was 0, the optical density (Malassezia furfur [2]; [8]) was 0 and the colony-forming units (Malassezia furfur [2]; [8]) was 0. It also gave a CFU (Malassezia furfur [2]; solution in DMSO, 25 μM, incubation time 64 h) of 0 and a CFU (Malassezia furfur [2]; solution in DMSO, 25 μM, incubation time 72 h) of 23.
